# Measured values reported in US10111822B2, “External dermal composition for anti-ageing and method for producing the same” (Hayashibara Co., Ltd., priority 2012, dated 2018).
# Test system: Microphthalmia-associated transcription factor (MITF)
# Experiment: MITF and phosphorylated MITF in B16 cells (Western)
# Assay type: cell-based, mouse
# Conditions: 2 h; for (Phosphorylated MITF)/(MITF): control 0.90; for Phosphorylated MITF / MITF: β-actin regarded as 100%; for Phosphorylated MITF: control 73; for MITF: control 81
# Description: Test solutions were prepared by dissolving ascorbic acid 2-glucoside (a reagent grade specimen commercialized by Hayashibara Co., Ltd., Okayama, Japan) or L-ascorbic acid (a special reagent grade specimen commercialized by Wako Pure Chemical Industries, Ltd., Tokyo, Japan) in Dulbecco's MEM medium supplemented with 10% v/v fetal calf serum and an antibiotic (abbreviated as “D-MEM medium”, hereinafter) to give a final concentration of 2.0 or 8.0 mM.
# Continuously-cultivated B16 cells in D-MEM medium were collected, resuspended in D-MEM medium, inoculated to 6-well plates in an amount of 1×10^5 cells/2 mL/well, and cultured for 24 hours. Thereafter, the culture supernatants were removed by sucking, and any of the test solutions was added to each plate in a volume of 2 mL/well, followed by culturing the cells for two hours. As a control, cells in other plates were added with only D-MEM medium in a volume of 2 mL/plate and cultured for two hours. To each plate, which had been removed its culture supernatant, an ice-chilled Dulbecco's PBS (−), commercialized by Nissui Pharmaceutical Co., Ltd., Tokyo, Japan, was added to wash cells, and the resulting cells were added with a SDS-sample buffer containing 62.5 mM Tris-HCl (pH 6.8), 2% w/v SDS, 10% w/v glycerol, 50 mM dithiothreitol (DTT), and 0.01% w/v bromophenol blue in a volume of 0.1 mL/well, and collected with a scraper. The resulting cell suspension was treated with an ultrasonicator, commercialized by Osminics Inc., Minnesota, USA, and subjected to SDS-polyacrylamide gel electrophoresis. The proteins in the gel were electrically transferred to a nitrocellulose membrane and allowed to sequentially react with a first antibody (Anti-phospho-MITF […] or Anti MITF), a secondary antibody, and LumiGLO™ in this order, followed by allowing to expose an X-ray film for detecting MITF positive bands. The bands thus detected were subjected to band strength analysis using Scion Image to determine the quantity of MITF and phosphorylated MITF. For every B16 cell culture, a 5% v/v CO2 incubator was used. Relative amounts of MITF and phosphorylated MITF and the ratio of phosphorylated MITF against MITF were determined when the level of β-actin in B16 cells upon culturing with each of the test solutions was regarded as 100%.
smiles,measurement,setting,value
"O=C1O[C@H]([C@@H](O)CO)C(O)=C1O[C@H]1O[C@H](CO)[C@@H](O)[C@H](O)[C@H]1O [ascorbic acid 2-glucoside, 2-O-α-D-glucosyl-L-ascorbic acid]",(Phosphorylated MITF)/(MITF),2.0 mM,0.60
same,Phosphorylated MITF,2.0 mM,59%
same,MITF,2.0 mM,99%
same,(Phosphorylated MITF)/(MITF),8.0 mM,0.36
same,Phosphorylated MITF,8.0 mM,36%
same,MITF,8.0 mM,101%
